Patent US9884063B2, “Amido-substituted azole compounds” (Bayer Pharma Aktiengesellschaft, priority 2014, dated 2018)

Legend:
[1] = system: wildtype Wnt signaling cascade; assay: HEK293 TOP Assay (Super TopFlash luciferase reporter, Wnt-3a stimulated); assay type: cell-based; settings: Homo sapiens, HEK293, 16 h
In short: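 Compounds (50 μM down to 15 nM, 3.16-fold steps, in CAFTY buffer pH 7.4, 2 mM Ca2+, 0.01% BSA) tested in parallel on TOP and FOP HEK293 reporter lines to define selective wildtype Wnt inhibition. Pathway driven by recombinant human Wnt-3a applied at 2500–5 ng/ml in two-fold dilutions.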

[2] = system: HEK293 FOP control reporter cell line; assay: HEK293 FOP Assay (FOP control vector luciferase reporter); assay type: cell-based; settings: Homo sapiens
Protocol: In a parallel approach, HEK293 cells were cotransfected with the FOP control vector and pcDNA3. The FOP vector is identical to the TOP construct, but it contains instead of functional TCF elements a randomized, non-functional sequence. For this transfection a stable transfected cell line was generated as well, based on selection with Geneticin (1 mg/ml).
In preparation of the assay, the two cell lines were plated 24 hrs before beginning the test at 10000 cells per well in a 384 micro titre plate (MTP) in 30 μl growth medium. […] The recombinant human Wnt-3a was thereby applied between 2500 and 5 ng/ml in two-fold dilution steps.
Selective inhibitory activity for small molecules on the wildtype Wnt pathway was determined after parallel incubation of both (TOP and FOP) HEK293 reporter cell lines with a compound dilution series from 50 μM to 15 nM in steps of 3.16-fold dilutions in CAFTY buffer (130 mM sodium chloride, 5 mM potassium chloride, 20 mM HEPES, 1 mM magnesium chloride, 5 mM sodium bicarbonate, pH 7.4) containing 2 mM Ca^2+ and 0.01% BSA.
The compounds were thereby serially prediluted in 100% DMSO and thereafter 50 fold into the CAFTY compound dilution buffer (described above).

[3] = HEK293 TOP reporter cell line, Wnt-3a at EC50, 16 hours incubation, compound dilution series 50 μM to 15 nM
[4] = HEK293 TOP reporter cells, Wnt3a at EC50, 16 hours, luciferase
[5] = HEK293 FOP control reporter cells, 16 hours, luciferase, dilution series from 50 μM
[6] = HEK293 FOP control reporter cell line, 16 hours incubation, compound dilution series 50 μM to 15 nM

## O=C(Nc1ccc(NC(=O)c2[nH]cnc2C(=O)N2CC3(COC3)C2)cc1)c1ccc(F)cc1 [Example 34, N-{4-[(4-fluorobenzoyl)amino]phenyl}-5-(2-oxa-6-azaspiro[3.3]hept-6-ylcarbonyl)-1H-imidazole-4-carboxamide]
[1]; [3]
  IC50: 12 µM
[1]; [4]
  IC50: 12 µM
[2]; [5]
  IC50: ≥ 50 µM

## CNC(=O)c1nc[nH]c1C(=O)Nc1ccc(NC(=O)c2c(F)cccc2F)cc1 [Example 38, N^5-{4-[(2,6-difluorobenzoyl)amino]phenyl}-N^4-methyl-1H-imidazole-4,5-dicarboxamide]
[1]; [3]
  IC50: 2.3 µM
[1]; [4]
  IC50: 2.3 µM
[2]; [6]
  IC50: 14 µM
[2]; [5]
  IC50: 14 µM

## CNC(=O)c1nc[nH]c1C(=O)Nc1ccc(NC(=O)c2ccc(OC)c(OC)c2OC)cc1 [Example 40, N^4-methyl-N^5-{4-[(2,3,4-trimethoxybenzoyl)amino]phenyl}-1H-imidazole-4,5-dicarboxamide]
[1]; [3]
  IC50: 12 µM
[1]; [4]
  IC50: 12 µM
[2]; [5]
  IC50: ≥ 50 µM

## CNC(=O)c1nc[nH]c1C(=O)Nc1ccc(NC(=O)c2ccccc2C(F)(F)F)cc1 [Example 58, N^4-methyl-N^5-(4-{[2-(trifluoromethyl)benzoyl]amino}phenyl)-1H-imidazole-4,5-dicarboxamide]
[1]; [3]
  IC50: 3.35 µM
[2]; [6]
  IC50: 29 µM

## CNC(=O)c1nc[nH]c1C(=O)Nc1ccc(NC(=O)c2ccc(F)cc2)c(F)c1 [Example 76, N^5-{3-fluoro-4-[(4-fluorobenzoyl)amino]phenyl}-N^4-methyl-1H-imidazole-4,5-dicarboxamide]
[1]; [3]
  IC50: 12 µM
[2]; [6]
  IC50: 7.4 µM

## COC(=O)c1nc[nH]c1C(=O)Nc1ccc(NC(=O)c2ccccc2Cl)c(F)c1 [Example 79, methyl-5-({4-[(2-chlorobenzoyl)amino]-3-fluorophenyl}carbamoyl)-1H-imidazole-4-carboxylate]
[1]; [3]
  IC50: 0.51 µM
[2]; [6]
  IC50: 8.2 µM

## COC(=O)c1nc[nH]c1C(=O)Nc1ccc(NC(=O)c2ccc(F)cc2Cl)c(C)c1 [Example 83, methyl 5-({4-[(2-chloro-4-fluorobenzoyl)amino]-3-methylphenyl}carbamoyl)-1H-imidazole-4-carboxylate]
[1]; [3]
  IC50: 0.39 µM
[2]; [6]
  IC50: 29 µM

## CNC(=O)c1nc[nH]c1C(=O)Nc1ccc(NC(=O)c2ccccc2Cl)c(C)c1 [Example 87, N^5-{4-[(2-chlorobenzoyl)amino]-3-methylphenyl}-N^4-methyl-1H-imidazole-4,5-dicarboxamide]
[1]; [3]
  IC50: 1.25 µM
[2]; [6]
  IC50: 28 µM

## COC(=O)c1nc[nH]c1C(=O)Nc1ccc(NC(=O)c2ccc(F)cc2)c(C)c1 [Example 90, methyl-5-({4-[(4-fluorobenzoyl)amino]-3-methylphenyl}carbamoyl)-1H-imidazole-4-carboxylate]
[1]; [3]
  IC50: 4.9 µM
[2]; [6]
  IC50: 13 µM

## Cc1cc(NC(=O)c2[nH]cnc2C(=O)NCCN(C)C)ccc1NC(=O)c1ccc(F)cc1 [Example 92, N^4-[2-(dimethylamino)ethyl]-N^5-{4-[(4-fluorobenzoyl)amino]-3-methylphenyl}-1H-imidazole-4,5-dicarboxamide]
[1]; [3]
  IC50: 6.95 µM
[2]; [6]
  IC50: 13 µM

## COc1cc(NC(=O)c2[nH]cnc2C(=O)NCCN2CCCCC2)ccc1NC(=O)c1ccc(F)cc1 [Example 105, N^5-{4-[(4-fluorobenzoyl)amino]-3-methoxyphenyl}-N^4-[2-(piperidin-1-yl)ethyl]-1H-imidazole-4,5-dicarboxamide]
[1]; [3]
  IC50: 1.65 µM
[2]; [6]
  IC50: 29 µM

## CC(C)c1nc(C(=O)Nc2ccc(NC(=O)c3ccc(F)cc3Cl)cc2)c(C(=O)NCCN(C)C)[nH]1 [Example 107, N^4-{4-[(2-chloro-4-fluorobenzoyl)amino]phenyl}-N^5-[2-(dimethylamino)ethyl]-2-isopropyl-1H-imidazole-4,5-dicarboxamide]
[1]; [3]
  IC50: 7.25 µM
[2]; [6]
  IC50: 39 µM

## CC(C)(C)NC(=O)c1[nH]cnc1C(=O)Nc1ccc(NC(=O)c2ccc(F)cc2)cc1 [Example 129, N^5-tert-butyl-N^4-{4-[(4-fluorobenzoyl)amino]phenyl}-1H-imidazole-4,5-dicarboxamide]
[1]; [3]
  IC50: 6.75 µM
[2]; [6]
  IC50: 15 µM

## CNC(=O)c1nc[nH]c1C(=O)Nc1ccc(NC(=O)c2ccno2)cc1 [Example 354, N^4-methyl-N^5-{4-[(1,2-oxazol-5-ylcarbonyl)amino]phenyl}-1H-imidazole-4,5-dicarboxamide]
[1]; [3]
  IC50: 50 µM

## CNC(=O)c1nc[nH]c1C(=O)Nc1ccc(NC(=O)c2ccc(OC)c(C)c2)cc1 [Example 355, N^5-{4-[(4-methoxy-3-methylbenzoyl)amino]phenyl}-N^4-methyl-1H-imidazole-4,5-dicarboxamide]
[1]; [3]
  IC50: 25 µM

## CNC(=O)c1nc[nH]c1C(=O)Nc1ccc(NC(=O)c2ccc(C)cn2)cc1 [Example 357, N^4-methyl-N^5-(4-{[(5-methylpyridin-2-yl)carbonyl]amino}phenyl)-1H-imidazole-4,5-dicarboxamide]
[1]; [3]
  IC50: 11.2 µM

## CNC(=O)c1nc[nH]c1C(=O)Nc1ccc(NC(=O)c2cccc(C(F)(F)F)c2Cl)cc1 [Example 358, N^5-(4-{[2-chloro-3-(trifluoromethyl)benzoyl]amino}phenyl)-N^4-methyl-1H-imidazole-4,5-dicarboxamide]
[1]; [3]
  IC50: 4.1 µM

## CNC(=O)c1nc[nH]c1C(=O)Nc1ccc(NC(=O)c2cc(F)cc(Cl)c2)cc1 [Example 360, N^5-{4-[(3-chloro-5-fluorobenzoyl)amino]phenyl}-N^4-methyl-1H-imidazole-4,5-dicarboxamide]
[1]; [3]
  IC50: 15.2 µM

## CNC(=O)c1nc[nH]c1C(=O)Nc1ccc(NC(=O)c2cc(F)c(F)c(Cl)c2)cc1 [Example 362, N^5-{4-[(3-chloro-4,5-difluorobenzoyl)amino]phenyl}-N^4-methyl-1H-imidazole-4,5-dicarboxamide]
[1]; [3]
  IC50: 50 µM

## CNC(=O)c1nc[nH]c1C(=O)Nc1ccc(NC(=O)c2cccc(OC)c2F)cc1 [Example 365, N^5-{4-[(2-fluoro-3-methoxybenzoyl)amino]phenyl}-N^4-methyl-1H-imidazole-4,5-dicarboxamide]
[1]; [3]
  IC50: 50 µM

## CNC(=O)c1nc[nH]c1C(=O)Nc1ccc(NC(=O)c2cc(F)cc(C#N)c2)cc1 [Example 371, N^5-{4-[(3-cyano-5-fluorobenzoyl)amino]phenyl}-N^4-methyl-1H-imidazole-4,5-dicarboxamide]
[1]; [3]
  IC50: 50 µM

## CNC(=O)c1nc[nH]c1C(=O)Nc1ccc(NC(=O)c2ccc(F)c(C)c2)cc1 [Example 373, N^5-{4-[(4-fluoro-3-methylbenzoyl)amino]phenyl}-N^4-methyl-1H-imidazole-4,5-dicarboxamide]
[1]; [3]
  IC50: 4.2 µM

## CC(C)OCCCNC(=O)c1nc[nH]c1C(=O)Nc1ccc(NC(=O)c2ccc(F)cc2Cl)cc1 [Example 383, N^5-{4-[(2-chloro-4-fluorobenzoyl)amino]phenyl}-N^4-[3-(propan-2-yloxy)propyl]-1H-imidazole-4,5-dicarboxamide]
[1]; [3]
  IC50: 50 µM

## O=C(Nc1ccc(NC(=O)c2[nH]cnc2C(=O)NCCN2CCCC2=O)cc1)c1ccc(F)cc1Cl [Example 398, N^5-{4-[(2-chloro-4-fluorobenzoyl)amino]phenyl}-N^4-[2-(2-oxopyrrolidin-1-yl)ethyl]-1H-imidazole-4,5-dicarboxamide]
[1]; [3]
  IC50: 0.71 µM

## O=C(Nc1ccc(NC(=O)c2[nH]cnc2C(=O)NCCN2CCNC2=O)cc1)c1ccc(F)cc1Cl [Example 399, N^5-{4-[(2-chloro-4-fluorobenzoyl)amino]phenyl}-N^4-[2-(2-oxoimidazolidin-1-yl)ethyl]-1H-imidazole-4,5-dicarboxamide]
[1]; [3]
  IC50: 1.2 µM
